Structures can show the parent of a compound that is named as a salt. Where two headings read alike, the source gives them in different places.
Test: Solubility of dolutegravir and its salts in aqueous media
Type: physicochemical
Method: At an increasing pH, for example to pH 6.8 in 50 mM KH2PO4 the solubility of the sodium salt of dolutegravir slightly increases but the salt still remains very slightly soluble (1-0.1 mg/ml), only. Due to this very low solubility of the active ingredient the tablets known from WO2006/116764 are of little practical use because the active ingredient will hardly dissolve in the intestine resulting in a low bioavailability.
Dolutegravir may be present in the solid pharmaceutical dosage form in its non-salt form or any pharmaceutically acceptable salt or solvate thereof. Suitable pharmaceutically acceptable salts are known to the skilled person. For example, dolutegravir may be present as alkali metal salt, such as dolutegravir sodium or dolutegravir potassium. The potassium salt being preferred.

C[C@@H]1CCO[C@H]2Cn3cc(C(=O)NCc4ccc(F)cc4F)c(=O)c(O)c3C(=O)N12 [sodium salt of dolutegravir]
solubility (aqueous buffer, pH 6.8 in 50 mM KH2PO4, read-out: solubility): 100 to 1000 µg/mL
solubility (simulated gastric fluid, 0.1 N HCl (pH 1.2), read-out: solubility): < 100 µg/mL

C[C@@H]1CCO[C@H]2Cn3cc(C(=O)NCc4ccc(F)cc4F)c(=O)c(O)c3C(=O)N12 [potassium salt]
solubility relative to the sodium salt: more soluble than the sodium salt

C[C@@H]1CCO[C@H]2Cn3cc(C(=O)NCc4ccc(F)cc4F)c(=O)c(O)c3C(=O)N12 [Dolutegravir, (4R,12aS)-N-(2,4-difluorobenzyl)-7-hydroxy-4-methyl-6,8-dioxo-3,4,6,8,12,12a-hexahydro-2H-pyrido[1′,2′:4,5]pyrazino[2,1-b][1,3]oxazine-9-carboxamide]
solubility (medium not stated): practically insoluble
